Assay results published in patent US12655120B2, “GPR52 modulator compounds” (NXERA PHARMA UK LIMITED, priority 2020, dated 2026).

Target: T1, human GPR52 (Homo sapiens, UniProt Q9Y2T5)
T1 construct: expressed in transfected cells; host or cells: HEKf suspension cells infected with BacMam virus
Experiment: GPR52 Agonist Functional cAMP Assay
Type: cell-based
Settings: for EC50: HEKf cells infected with human GPR52 BacMam, HTRF cAMP, 30 min at 37° C., read-out: pEC50 average (converted); for Emax: normalised to DMSO (0%) and maximal compound 7m (J. Med. Chem., 2014, 57, 5226) response (100%)
Method: HEKf suspension cells were infected for 24 h with 0.1% v/v human GPR52 expressing BacMam virus, a modified baculovirus designed for mammalian gene expression. Following BacMam infection, cells were pelleted by centrifugation (335 g, 5 min), resuspended in cell freezing medium (Sigma) and frozen at −150° C. until required. On experiment day, 25 nL GPR52 compound dilutions, prepared in DMSO, were stamped onto proxiplates (PerkinElmer) by a LabCyte ECHO acoustic dispenser. Frozen cells were thawed and resuspended in assay stimulation buffer (Cisbio) containing 0.5 mM 3-iso-butyl-1-methylxanthine (IBMX, Sigma) to achieve a density of 2000 cells per well. 10 μl cells were added to assay plates using a Multidrop Combi Reagent Dispenser (ThermoFisher) before centrifugation (335 g, 1 min). Cells were incubated with compounds at 37° C. for 30 min prior to addition of cAMP detection reagents (HiRange cAMP kit, Cisbio) which were prepared according to the manufacturer's instructions. Plates were shaken for 1 h at room temperature before reading on a PHERAstar FS plate reader (BMG Labtech) using standard HTRF settings. HTRF ratios were obtained by dividing the acceptor emissions (665 nm) by the donor emissions (620 nm) and multiplying by 10,000.

T1 sequence (Q9Y2T5 whole entry): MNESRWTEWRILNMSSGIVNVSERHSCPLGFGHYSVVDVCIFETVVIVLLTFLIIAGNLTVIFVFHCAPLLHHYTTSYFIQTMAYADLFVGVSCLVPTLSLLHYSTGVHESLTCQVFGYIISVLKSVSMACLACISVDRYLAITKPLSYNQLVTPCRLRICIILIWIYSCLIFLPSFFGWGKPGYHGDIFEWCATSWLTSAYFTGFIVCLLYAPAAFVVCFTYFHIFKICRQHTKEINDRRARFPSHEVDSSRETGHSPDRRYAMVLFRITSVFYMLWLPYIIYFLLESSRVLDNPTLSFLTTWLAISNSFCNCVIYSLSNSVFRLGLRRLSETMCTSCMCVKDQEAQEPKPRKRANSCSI

SMILES | EC50 [nM] | Emax [%]
CCc1nn(-c2ccnc(Cc3cc(F)cc(C(F)(F)F)c3)c2)cc1C(N)=O [Example 25, 3-ethyl-1-(2-(3-fluoro-5-(trifluoromethyl)benzyl)pyridin-4-yl)-1H-pyrazole-4-carboxamide] | 10 | 99
COc1nn(-c2ccnc(Cc3cc(F)cc(C(F)(F)F)c3)c2)cc1C(N)=O [Example 11, 1-(2-(3-fluoro-5-(trifluoromethyl)benzyl)pyridin-4-yl)-3-methoxy-1H-pyrazole-4-carboxamide] | 251 | 86
Cc1nn(-c2cc(Cc3cc(F)cc(C(F)(F)F)c3)ccn2)nc1C(N)=O [Example 13, 2-(4-(3-fluoro-5-(trifluoromethyl)benzyl)pyridin-2-yl)-5-methyl-2H-1,2,3-triazole-4-carboxamide] | 39.8 | 93
Cc1c(C(N)=O)cnn1-c1cc(Cc2cc(F)cc(C(F)(F)F)c2)ccn1 [Example 7, 1-(4-(3-fluoro-5-(trifluoromethyl)benzyl)pyridin-2-yl)-5-methyl-1H-pyrazole-4-carboxamide] | 126 | 93
Cc1cn(-c2cccc(Cc3cc(F)cc(C(F)(F)F)c3)n2)nc1C(N)=O [Example 15, 1-(6-(3-fluoro-5-(trifluoromethyl)benzyl)pyridin-2-yl)-4-methyl-1H-pyrazole-3-carboxamide] | 79.4 | 92
Cc1nn(-c2cc(Cc3cc(F)cc(C(F)(F)F)c3)ccn2)c(C)c1C(N)=O [Example 6, 1-(4-(3-fluoro-5-(trifluoromethyl)benzyl)pyridin-2-yl)-3,5-dimethyl-1H-pyrazole-4-carboxamide] | 12.6 | 97
NC(=O)c1cnn(-c2cc(Cc3cc(F)cc(C(F)(F)F)c3)ccn2)n1 [Example 4, 2-(4-(3-fluoro-5-(trifluoromethyl)benzyl)pyridin-2-yl)-2H-1,2,3-triazole-4-carboxamide] | 316 | 84
NC(=O)c1ccn(-c2cc(Cc3cc(F)cc(C(F)(F)F)c3)ccn2)n1 [Example 9, 1-(4-(3-fluoro-5-(trifluoromethyl)benzyl)pyridin-2-yl)-1H-pyrazole-3-carboxamide] | 100 | 85
COc1nn(-c2cc(Cc3cc(F)cc(C(F)(F)F)c3)ccn2)cc1C(N)=O [Example 14, 1-(4-(3-fluoro-5-(trifluoromethyl)benzyl)pyridin-2-yl)-3-methoxy-1H-pyrazole-4-carboxamide] | 31.6 | 95
NC(=O)c1cn(-c2ccnc(Cc3cc(F)cc(C(F)(F)F)c3)c2)nc1Cl [Example 22, 3-chloro-1-(2-(3-fluoro-5-(trifluoromethyl)benzyl)pyridin-4-yl)-1H-pyrazole-4-carboxamide] | 15.8 | 96
Cc1cn(-c2cc(Cc3cc(F)cc(C(F)(F)F)c3)ccn2)nc1C(N)=O [Example 10, 1-(4-(3-fluoro-5-(trifluoromethyl)benzyl)pyridin-2-yl)-4-methyl-1H-pyrazole-3-carboxamide] | 79.4 | 83

Results, then the molecule that gave them:

EC50 [nM] | Emax [%] | SMILES
200 | 91 | CNC(=O)c1cn(-c2cc(Cc3cc(F)cc(C(F)F)c3)ccn2)nc1C [Example 45, 1-(4-(3-(difluoromethyl)-5-fluorobenzyl)pyridin-2-yl)-N,3-dimethyl-1H-pyrazole-4-carboxamide]
398 | 83 | O=C(NCCO)c1ccn(-c2cc(Cc3cc(F)cc(C(F)(F)F)c3)ccn2)n1 [Example 35, 1-(4-(3-fluoro-5-(trifluoromethyl)benzyl)pyridin-2-yl)-N-(2-hydroxyethyl)-1H-pyrazole-3-carboxamide]
100 | 100 | Cc1cnc(Cc2cc(F)cc(C(F)(F)F)c2)cc1-n1cc(C(N)=O)c(C)n1 [Example 52, 1-(2-(3-fluoro-5-(trifluoromethyl)benzyl)-5-methylpyridin-4-yl)-3-methyl-1H-pyrazole-4-carboxamide]
20 | 87 | CNC(=O)c1ccn(-c2cc(Cc3cc(F)cc(C(F)(F)F)c3)ccn2)n1 [Example 31, 1-(4-(3-fluoro-5-(trifluoromethyl)benzyl)pyridin-2-yl)-N-methyl-1H-pyrazole-3-carboxamide]
126 | 87 | COCCNC(=O)c1ccn(-c2cc(Cc3cc(F)cc(C(F)(F)F)c3)ccn2)n1 [Example 36, 1-(4-(3-fluoro-5-(trifluoromethyl)benzyl)pyridin-2-yl)-N-(2-methoxyethyl)-1H-pyrazole-3-carboxamide]
10 | 82 | CNC(=O)c1nn(-c2cc(Cc3cc(F)cc(C(F)(F)F)c3)ccn2)cc1CO [Example 50, 1-(4-(3-fluoro-5-(trifluoromethyl)benzyl)pyridin-2-yl)-4-(hydroxymethyl)-N-methyl-1H-pyrazole-3-carboxamide]
3.16 | 87 | CNC(=O)c1nn(-c2cc(Cc3cc(F)cc(C(F)(F)F)c3)ccn2)cc1C [Example 57, 1-(4-(3-fluoro-5-(trifluoromethyl)benzyl)pyridin-2-yl)-N,4-dimethyl-1H-pyrazole-3-carboxamide]
1260 | 86 | NC(=O)c1ccn(-c2ccnc(Cc3cc(F)cc(C(F)(F)F)c3)c2)n1 [Example 29, 1-(2-(3-fluoro-5-(trifluoromethyl)benzyl)pyridin-4-yl)-1H-pyrazole-3-carboxamide]
15.8 | 92 | CNC(=O)c1nn(-c2cc(Cc3cc(F)cc(C(F)(F)F)c3)ccn2)nc1C [Example 58, 2-(4-(3-fluoro-5-(trifluoromethyl)benzyl)pyridin-2-yl)-N,5-dimethyl-2H-1,2,3-triazole-4-carboxamide]
 | 101 | Cc1nn(-c2cc(Cc3cc(F)cc(C(F)(F)F)c3)ccn2)c(CO)c1C(=O)NCCO [Example 40, 1-(4-(3-fluoro-5-(trifluoromethyl)benzyl)pyridin-2-yl)-N-(2-hydroxyethyl)-5-(hydroxymethyl)-3-methyl-1H-pyrazole-4-carboxamide]
31.6 | 95 | CNC(=O)c1cc(C)n(-c2cc(Cc3cc(F)cc(C(F)(F)F)c3)ccn2)n1 [Example 28, 1-(4-(3-fluoro-5-(trifluoromethyl)benzyl)pyridin-2-yl)-N,5-dimethyl-1H-pyrazole-3-carboxamide]
79.4 | 97 | Cc1c(C(N)=O)c(CO)nn1-c1cc(Cc2cc(F)cc(C(F)(F)F)c2)ccn1 [Example 53, 1-(4-(3-fluoro-5-(trifluoromethyl)benzyl)pyridin-2-yl)-3-(hydroxymethyl)-5-methyl-1H-pyrazole-4-carboxamide]
200 | 79 | Cc1nn(-c2ccnc(C(O)c3cc(F)cc(C(F)(F)F)c3)c2)cc1C(N)=O (stereo not shown) [Example 59, 1-(2-((3-fluoro-5-(trifluoromethyl)phenyl)(hydroxy)methyl)pyridin-4-yl)-3-methyl-1H-pyrazole-4-carboxamide]
501 | 52 | NC(=O)c1cn(-c2cccc(Cc3cc(F)cc(C(F)(F)F)c3)n2)nc1CO [Example 47, 1-(6-(3-fluoro-5-(trifluoromethyl)benzyl)pyridin-2-yl)-3-(hydroxymethyl)-1H-pyrazole-4-carboxamide]
